Experimental data reported in patent US20040198663A1, “Method of treating cardiac ischemia by using erythropoietin” (priority 2003, published 2004).

Test system: hearts from normoxic infant rabbits
Experiment: Isolated Langendorff-perfused heart, 30 min global no-flow ischemia and 35 min reperfusion, normoxic hearts
Parameters: species or system New Zealand White rabbit
Details: for POST DRUG Coronary flow rate / POST DRUG Heart rate / POST DRUG Left ventricle developed pressure / POST DRUG Right ventricle developed pressure / REPERFUSION (35 min) Coronary flow rate / REPERFUSION (35 min) Heart rate / REPERFUSION (35 min) Left ventricle developed pressure / REPERFUSION (35 min) Right ventricle developed pressure: normoxic hearts; for REPERFUSION (35 min) Coronary flow rate / REPERFUSION (35 min) Heart rate / REPERFUSION (35 min) Left ventricle developed pressure / REPERFUSION (35 min) Right ventricle developed pressure: after 30 min ischemia
Method: The study was directed to determining whether erythropoietin (0.5-10.0 U/ml) confers immediate cardioprotection in infant rabbit hearts and the contribution of protein kinases, nitric oxide synthase and potassium channels to the underlying mechanism. Hearts from normoxic infant Zealand White rabbits (n=8/group) were isolated and perfused in the Langendorff mode. Biventricular function was recorded under steady-state conditions prior to 30 minutes global no flow ischemia and 35 minutes reperfusion.
Animals. Rabbits used in the study received humane care in compliance with the “Guide for the Care and Use of Laboratory Animals” formulated by the National Research Council, 1996. Infant New Zealand White rabbits were maintained for 10 days in a normoxic (SaO2>95%) or hypoxic (SaO2<85%) environment as described in Baker et al., Circulation 99:1249-54 (1999).
Isolated heart perfusion. Isolated rabbit hearts were perfused with bicarbonate buffer at constant pressure in a retrograde manner and instrumented as described in Baker et al., Circulation 99:1249-54 (1999). Protein kinase inhibitors, potassium channel blockers or nitric oxide synthase inhibitors were added to this perfusate as needed. A 3-way tap, located immediately above the site of cannulation, allowed the entire perfusate to be diverted away from the heart to produce global, no-flow ischemia. Reperfusion was achieved by repositioning of the tap to allow perfusate to be delivered to the heart. Left and right ventricular function was monitored continuously throughout each experiment as described in Baker et al., Circulation 99:1249-54 (1999). End-diastolic pressure was initially set to 3 mmHg for 2 minutes. The balloons were then progressively inflated with a microsyringe to set end-diastolic pressures to 8 mmHg for the left ventricle and 4 mmHg for the right ventricle, with developed pressure and heart rate recorded during steady-state conditions. Coronary flow rate was measured throughout the experiment by timed collections of the coronary effluent from the right side of the heart into a graduated cylinder. Coronary flow rate was expressed as milliliters per minute per gram wet weight.
Resistance to myocardial ischemia. Hearts from infant rabbits were perfused with bicarbonate buffer, and biventricular function was monitored continuously throughout each experiment as described in Rafiee et al., Circulation 106:239-45 (2002). For concentration response studies, hearts were then perfused with erythropoietin (0.5-10.0 U/ml) for 15 minutes prior to 30 minutes ischemia and 35 minutes reperfusion. For mechanism studies with protein kinase inhibitors, potassium channel blockers or nitric oxide synthase inhibitors, hearts were perfused with drugs for 15 minutes alone followed by 15 minutes in combination with erythropoietin prior to ischemia. Hearts perfused with protein kinase inhibitors or potassium channel blockers alone in the absence of erythropoietin for 30 minutes prior to ischemia served as untreated controls for these studies. Recovery of post-ischemic left and right ventricular developed pressure was expressed as a percentage of its pre-drug, pre-ischemic value.
Assessment of ventricular function. Left and right ventricular function was monitored continuously throughout each experiment as described in Rafiee et al., Circulation 106:239-45 (2002).
Hearts from New Zealand White rabbits at 9 days of age were perfused with erythropoietin at 0, 0.5, 1.0, 2.5, 5.0, and 10.0 U/ml for 15 minutes prior to 30 minutes global ischemia and 35 minutes reperfusion. Erythropoietin (1.0 U/ml) reduced coronary flow rate prior to ischemia from 7 ml/min/g to 6 ml/min/g but had no effect on heart rate (220±18 beats/min) or developed pressure in left (106±3 mm Hg) or right (42±3 mm Hg) ventricle.

[1] = erythropoietin 1.0 U/ml, no effect

With “erythropoietin: Recombinant human erythropoietin, a glycoprotein hormone, obtained from Cell Science, Inc.” the “cardioprotection after 20 minutes treatment versus 15-minute treatment” value (1.0 U/ml for 20 minutes) was “no further increase in cardioprotection”, the “minimum treatment period needed to confer cardioprotection in both left and right ventricle” value (1.0 U/ml prior to ischemia) was 15 min and the “protective concentrations of erythropoietin in the in vitro studies” value (15 min prior to ischemia) was 0.5-5.0 units/ml. For the same substance, the “developed pressure in left ventricle prior to ischemia” value [1] was 106±3 mm Hg, the “developed pressure in right ventricle prior to ischemia” value [1] was 42±3 mm Hg and the “heart rate prior to ischemia” value [1] was 220±18 beats/min. The “coronary flow rate prior to ischemia” value (erythropoietin 1.0 U/ml, reduced from 7 ml/min/g) was 6 mL/min/g, the “POST DRUG Coronary flow rate” value (EPO 0.5 U/ml for 15 min) was 3 ± 1 mL/min/g and the “POST DRUG Heart rate” value (EPO 0.5 U/ml for 15 min) was 196 ± 21 beats/min. For the same substance, the “POST DRUG Left ventricle developed pressure” value (EPO 0.5 U/ml for 15 min) was 102 ± 8 mmHg, the “POST DRUG Right ventricle developed pressure” value (EPO 0.5 U/ml for 15 min) was 38 ± 5 mmHg and the “REPERFUSION (35 min) Coronary flow rate” value (EPO 0.5 U/ml) was 4 ± 1 mL/min/g. For the same substance, the “REPERFUSION (35 min) Heart rate” value (EPO 0.5 U/ml) was 210 ± 19 beats/min, the “REPERFUSION (35 min) Left ventricle developed pressure” value (EPO 0.5 U/ml) was 67 ± 3 mmHg and the “REPERFUSION (35 min) Right ventricle developed pressure” value (EPO 0.5 U/ml) was 31 ± 4 mmHg. The “POST DRUG Coronary flow rate” value (EPO 1.0 U/ml for 15 min) was 3 ± 1 mL/min/g, the “POST DRUG Heart rate” value (EPO 1.0 U/ml for 15 min) was 199 ± 25 beats/min and the “POST DRUG Left ventricle developed pressure” value (EPO 1.0 U/ml for 15 min) was 99 ± 4 mmHg. The “POST DRUG Right ventricle developed pressure” value (EPO 1.0 U/ml for 15 min) was 38 ± 3 mmHg, the “REPERFUSION (35 min) Coronary flow rate” value (EPO 1.0 U/ml) was 5 ± 1 mL/min/g and the “REPERFUSION (35 min) Heart rate” value (EPO 1.0 U/ml) was 210 ± 30 beats/min. The “REPERFUSION (35 min) Left ventricle developed pressure” value (EPO 1.0 U/ml) was 71 ± 8 mmHg, the “REPERFUSION (35 min) Right ventricle developed pressure” value (EPO 1.0 U/ml) was 31 ± 2 mmHg and the “POST DRUG Coronary flow rate” value (EPO 2.5 U/ml for 15 min) was 4 ± 1 mL/min/g. The “POST DRUG Heart rate” value (EPO 2.5 U/ml for 15 min) was 210 ± 20 beats/min, the “POST DRUG Left ventricle developed pressure” value (EPO 2.5 U/ml for 15 min) was 103 ± 4 mmHg and the “POST DRUG Right ventricle developed pressure” value (EPO 2.5 U/ml for 15 min) was 41 ± 5 mmHg. The “REPERFUSION (35 min) Coronary flow rate” value (EPO 2.5 U/ml) was 5 ± 2 mL/min/g, the “REPERFUSION (35 min) Heart rate” value (EPO 2.5 U/ml) was 224 ± 14 beats/min and the “REPERFUSION (35 min) Left ventricle developed pressure” value (EPO 2.5 U/ml) was 64 ± 3 mmHg. For the same substance, the “REPERFUSION (35 min) Right ventricle developed pressure” value (EPO 2.5 U/ml) was 31 ± 3 mmHg, the “POST DRUG Coronary flow rate” value (EPO 5.0 U/ml for 15 min) was 4 ± 1 mL/min/g and the “POST DRUG Heart rate” value (EPO 5.0 U/ml for 15 min) was 221 ± 20 beats/min. The “POST DRUG Left ventricle developed pressure” value (EPO 5.0 U/ml for 15 min) was 102 ± 6 mmHg, the “POST DRUG Right ventricle developed pressure” value (EPO 5.0 U/ml for 15 min) was 43 ± 7 mmHg and the “REPERFUSION (35 min) Coronary flow rate” value (EPO 5.0 U/ml) was 4 ± 1 mL/min/g. The “REPERFUSION (35 min) Heart rate” value (EPO 5.0 U/ml) was 226 ± 26 beats/min, the “REPERFUSION (35 min) Left ventricle developed pressure” value (EPO 5.0 U/ml) was 64 ± 4 mmHg and the “REPERFUSION (35 min) Right ventricle developed pressure” value (EPO 5.0 U/ml) was 32 ± 5 mmHg. The “POST DRUG Coronary flow rate” value (EPO 10 U/ml for 15 min) was 5 ± 2 mL/min/g, the “POST DRUG Heart rate” value (EPO 10 U/ml for 15 min) was 232 ± 52 beats/min and the “POST DRUG Left ventricle developed pressure” value (EPO 10 U/ml for 15 min) was 101 ± 5 mmHg. For the same substance, the “POST DRUG Right ventricle developed pressure” value (EPO 10 U/ml for 15 min) was 40 ± 5 mmHg, the “REPERFUSION (35 min) Coronary flow rate” value (EPO 10 U/ml) was 5 ± 1 mL/min/g and the “REPERFUSION (35 min) Heart rate” value (EPO 10 U/ml) was 230 ± 49 beats/min. For the same substance, the “REPERFUSION (35 min) Left ventricle developed pressure” value (EPO 10 U/ml) was 52 ± 3 mmHg and the “REPERFUSION (35 min) Right ventricle developed pressure” value (EPO 10 U/ml) was 28 ± 4 mmHg.
